In PMC9284121, “Florfenicol-Polyarginine Conjugates Exhibit Promising Antibacterial Activity Against Resistant Strains” (Frontiers in Chemistry, 2022):
≈ marks a conversion by molar mass, not a printed value. Where two headings read alike, the source gives them in different places. Where a SMILES comes first, the peptide text is derived from it.

Columns and labels:
Assay in all cases: microbe, parasite or virus in culture
[1] = system: E. coli clinical strain 2018XJ105; format: cell-based, Escherichia coli
Procedure: (§1) All the florfenicol-polyarginine conjugates were tested against Gram-positive and Gram-negative bacteria, including MRSA (ATCC 43300), S. aureus (ATCC 25923), E. coli (ATCC 25922), clinical strains of E. coli (2019XJ06, 2019XJ25, 2018XJ108, 2018XJ105, 2018XJ30) and clinical strains of florfenicol resistant E. coli (2017XJ30, 2019XJ20).
(§2) Gram-negative E. coli (ATCC 25922), clinical strains of E. coli (2019XJ06, 2019XJ25, 2018XJ108, 2018XJ105, 2018XJ30) and clinical strains of florfenicol resistant E. coli (2017XJ30, 2019XJ20) and Gram-positive MRSA (ATCC 43300) and S. aureus (ATCC 25923) were maintained in 50% glycerol at −80°C up to the time of use. The bacterial strains were cultured in Muller-Hinton broth (Guangdong Huan Kai Microbial Sci. &Tech. Co., Ltd. in China) media. Mueller-Hinton agar (Guangdong Huan Kai Microbial Sci. & Tech. Co., Ltd. in China) was used as growth medium in solid media.
(§3) CLSI guidelines were followed for determining MICs of all florfenicol-polyarginine conjugates by the broth microdilution method. The required bacterial (E. coli, S. aureus and MRSA) single colony was inoculated into Muller-Hinton broth (MHB) and cultured for 4–6 h. And then, the bacteria were adjusted to 10^6 CFU/ml in cultures. All compounds were prepared into a stock solution at a concentration of 0.1 mol/L with DMSO. The stock solutions were then diluted to required concentration (100, 50, 25, 12.5, 6.25, 3.125, 1.56, 0.78, 0.39 μmol/L) with MHB media. Subsequently, a 96 well plate was filled with these dilutions and 10^6 CFU/ml bacterial suspension. The diluted compounds of different concentrations (100 µl) were first added to 96 well plate, and then 100 µl bacterial dilutions (10^6 CFU/ml) was added. The negative and positive controls were 200 µl of MHB media and 100 µl of bacterial suspension combined with 100 µl of MHB media, respectively. The experiment of each compound was repeated three times, and each experiment was at least twice repeated. The 96 well plates were incubated at 37°C for 16–24 h. MIC indicated antibacterial activity. Florfenicol was used as a control drug.

[2] = system: E. coli clinical strain 2018XJ108; format: cell-based, Escherichia coli
Procedure: as §1, §2, §3

[3] = system: E. coli clinical strain 2018XJ30; format: cell-based, Escherichia coli
Procedure: as §1, §2, §3

[4] = system: E. coli clinical strain 2019XJ06; format: cell-based, Escherichia coli
Procedure: as §1, §2, §3

[5] = system: E. coli clinical strain 2019XJ25; format: cell-based, Escherichia coli
Procedure: as §1, §2, §3

E.coli (ATCC 25922) = format: cell-based, Escherichia coli
Procedure: as §1, §2, §3

[6] = system: florfenicol resistant E. coli clinical strain 2017XJ30; format: cell-based, Escherichia coli
Procedure: as §1, §2, §3

[7] = system: florfenicol resistant E. coli clinical strain 2019XJ20; format: cell-based, Escherichia coli
Procedure: as §1, §2, §3

S. aureus (ATCC 292130) = format: cell-based, Staphylococcus aureus
MRSA (ATCC 43300) = format: cell-based, methicillin-resistant S. aureus
Procedure: as §1, §2, §3

[8] = system: 10 strains tested (E. coli, S. aureus, MRSA, clinical E. coli strains); format: cell-based
Procedure: as §1, §2, §3

[9] = florfenicol resistant clinical strain 2017XJ30
[10] = florfenicol resistant clinical strain 2019XJ20
[11] = Escherichia coli, clinical E. coli 2018XJ105, MHB, read-out: MIC
[12] = Escherichia coli, clinical E. coli 2018XJ108, MHB, read-out: MIC
[13] = Escherichia coli, clinical E. coli 2018XJ30, MHB, read-out: MIC
[14] = Escherichia coli, clinical E. coli 2019XJ06, MHB, read-out: MIC
[15] = Escherichia coli, clinical E. coli 2019XJ25, MHB, read-out: MIC
[16] = Escherichia coli, ATCC25922, E.coli (ATCC 25922), MHB, read-out: MIC
[17] = Escherichia coli, florfenicol resistant E. coli 2017XJ30, MHB, read-out: MIC
[18] = Escherichia coli, florfenicol resistant E. coli 2019XJ20, MHB, read-out: MIC
[19] = Staphylococcus aureus, ATCC292130, S. aureus (ATCC 292130), MHB, read-out: MIC
[20] = Staphylococcus aureus, MRSA (ATCC 43300), MHB, read-out: MIC
[21] = Escherichia coli, against the 10 strains tested, read-out: MIC

| SMILES | MIC ([1]; clinical strain 2018XJ105) [µM] | MIC ([2]; clinical strain 2018XJ108) [µM] | MIC ([3]; clinical strain 2018XJ30) [µM] | MIC ([4]; clinical strain 2019XJ06) [µM] | MIC ([5]; clinical strain 2019XJ25) [µM] | MIC (E.coli (ATCC 25922); ATCC 25922) [µM] | MIC [6, 9] [µM] | MIC [7, 10] [µM] | MIC (S. aureus (ATCC 292130); ATCC 292130) [µM] | MIC (MRSA (ATCC 43300); ATCC 43300) [µM] | other results |
| --- | --- | --- | --- | --- | --- | --- | --- | --- | --- | --- | --- |
| COC(=O)[C@H](CCCNC(=N)N)NC(=O)CCCC(=O)O[C@H](c1ccc(S(C)(=O)=O)cc1)[C@@H](CF)NC(=O)C(Cl)Cl [Compound E7] | >100 | >100 | >100 | >100 | >100 | >100 | >100 | >100 | >100 | >100 | – |
| N=C(N)NCCC[C@H](NC(=O)[C@H](CCCNC(=N)N)NC(=O)[C@H](CCCNC(=N)N)NC(=O)[C@@H](N)CCCNC(=N)N)C(N)=O [Compound D4] (H-RRRR-NH2) | >100 | >100 | >100 | >100 | >100 | >100 | >100 | >100 | >100 | >100 | – |
| CS(=O)(=O)c1ccc([C@@H](OC(=O)CCCCC(=O)O)[C@@H](CF)NC(=O)C(Cl)Cl)cc1 [Compound C3] | – | – | – | – | – | – | – | – | – | – | MIC [1, 11]: > 100 µM; MIC [2, 12]: > 100 µM; MIC [3, 13]: > 100 µM; MIC [4, 14]: > 100 µM; MIC [5, 15]: > 100 µM; MIC (E.coli (ATCC 25922); [16]): > 100 µM; MIC [6, 17]: > 100 µM; MIC [7, 18]: > 100 µM; MIC (S. aureus (ATCC 292130); [19]): > 100 µM; MIC (MRSA (ATCC 43300); [20]): > 100 µM; MIC [8, 21]: > 100 µM |
| COC(=O)[C@H](CCCNC(=N)N)NC(=O)CCCCC(=O)O[C@H](c1ccc(S(C)(=O)=O)cc1)[C@@H](CF)NC(=O)C(Cl)Cl [Compound E13] | >100 | >100 | >100 | >100 | >100 | >100 | >100 | >100 | >100 | >100 | – |
| CS(=O)(=O)c1ccc([C@@H](OC(=O)CCC(=O)N[C@@H](CCCNC(=N)N)C(N)=O)[C@@H](CF)NC(=O)C(Cl)Cl)cc1 [Compound E2] | 25 (≈ 15.3 µg/mL) | 25 (≈ 15.3 µg/mL) | 25 (≈ 15.3 µg/mL) | 25 (≈ 15.3 µg/mL) | 25 (≈ 15.3 µg/mL) | 25 (≈ 15.3 µg/mL) | >100 | >100 | 25 (≈ 15.3 µg/mL) | 25 (≈ 15.3 µg/mL) | – |
| N=C(N)NCCC[C@H](NC(=O)[C@@H](N)CCCNC(=N)N)C(N)=O [Compound D3] (H-Arg-Arg-NH2) | >100 | >100 | >100 | >100 | >100 | >100 | >100 | >100 | >100 | >100 | – |
| COC(=O)[C@@H](N)CCCNC(=N)N [Compound D1] | >100 | >100 | >100 | >100 | >100 | >100 | >100 | >100 | >100 | >100 | – |
| CS(=O)(=O)c1ccc([C@@H](OC(=O)CCCC(=O)N[C@@H](CCCNC(=N)N)C(N)=O)[C@@H](CF)NC(=O)C(Cl)Cl)cc1 [Compound E8] | >100 | >100 | >100 | >100 | >100 | >100 | >100 | >100 | >100 | >100 | – |
| N=C(N)NCCC[C@H](N)C(N)=O [Compound D2] | >100 | >100 | >100 | >100 | >100 | >100 | >100 | >100 | >100 | >100 | – |
| COC(=O)[C@H](CCCNC(=N)N)NC(=O)CCC(=O)O[C@H](c1ccc(S(C)(=O)=O)cc1)[C@@H](CF)NC(=O)C(Cl)Cl [Compound E1] | 25 (≈ 15.7 µg/mL) | 25 (≈ 15.7 µg/mL) | 25 (≈ 15.7 µg/mL) | 25 (≈ 15.7 µg/mL) | 25 (≈ 15.7 µg/mL) | 25 (≈ 15.7 µg/mL) | >100 | >100 | 50 (≈ 31.4 µg/mL) | 50 (≈ 31.4 µg/mL) | – |
| N=C(N)NCCC[C@H](NC(=O)[C@H](CCCNC(=N)N)NC(=O)[C@H](CCCNC(=N)N)NC(=O)[C@H](CCCNC(=N)N)NC(=O)[C@H](CCCNC(=N)N)NC(=O)[C@H](CCCNC(=N)N)NC(=O)[C@H](CCCNC(=N)N)NC(=O)[C@@H](N)CCCNC(=N)N)C(N)=O [Compound D6] | 50 (≈ 63.3 µg/mL) | 50 (≈ 63.3 µg/mL) | 50 (≈ 63.3 µg/mL) | 50 (≈ 63.3 µg/mL) | 50 (≈ 63.3 µg/mL) | 50 (≈ 63.3 µg/mL) | 50 (≈ 63.3 µg/mL) | 50 (≈ 63.3 µg/mL) | 25 (≈ 31.7 µg/mL) | 25 (≈ 31.7 µg/mL) | MIC [8]: 25 to 100 µM |
| CS(=O)(=O)c1ccc([C@@H](OC(=O)CCC(=O)O)[C@@H](CF)NC(=O)C(Cl)Cl)cc1 [Compound C1, florfenicol succinate] | – | – | – | – | – | – | – | – | – | – | MIC [1, 11]: > 100 µM; MIC [2, 12]: > 100 µM; MIC [3, 13]: > 100 µM; MIC [4, 14]: > 100 µM; MIC [5, 15]: > 100 µM; MIC (E.coli (ATCC 25922); [16]): > 100 µM; MIC [6, 17]: > 100 µM; MIC [7, 18]: > 100 µM; MIC (S. aureus (ATCC 292130); [19]): > 100 µM; MIC (MRSA (ATCC 43300); [20]): > 100 µM; MIC [8, 21]: > 100 µM |
| CS(=O)(=O)c1ccc([C@@H](OC(=O)CCCC(=O)O)[C@@H](CF)NC(=O)C(Cl)Cl)cc1 [Compound C2, florfenicol glutarate] | – | – | – | – | – | – | – | – | – | – | MIC [1, 11]: > 100 µM; MIC [2, 12]: > 100 µM; MIC [3, 13]: > 100 µM; MIC [4, 14]: > 100 µM; MIC [5, 15]: > 100 µM; MIC (E.coli (ATCC 25922); [16]): > 100 µM; MIC [6, 17]: > 100 µM; MIC [7, 18]: > 100 µM; MIC (S. aureus (ATCC 292130); [19]): > 100 µM; MIC (MRSA (ATCC 43300); [20]): > 100 µM; MIC [8, 21]: > 100 µM |
| CS(=O)(=O)c1ccc([C@@H](OC(=O)CCCCC(=O)N[C@@H](CCCNC(=N)N)C(N)=O)[C@@H](CF)NC(=O)C(Cl)Cl)cc1 [Compound E14] | >100 | >100 | >100 | >100 | >100 | >100 | >100 | >100 | >100 | >100 | – |
